Measured values published in patent US8354419B2, “Benzimidazole analogues for the treatment or prevention of flavivirus infections” (Vertex Pharmaceuticals Incorporated, priority 2009, dated 2013).

System: HCV (Ib) RNA replication
Experiment: Cell-based luciferase reporter HCV (1b) RNA replication assay (replicon cell lines Huh-7 5.2 and ET)
Design: species or system Hepatitis C virus
Conditions: Hepatitis C virus, Huh-7, 96 h, HCV 1b genotype replicon, luciferase readout, 4 days incubation; read-out: EC50_1b
Procedure, shortened: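 Compounds were tested at eleven concentrations in duplicate over 4 days at 37 °C, 5% CO2. The cells were luciferase-reporter HCV 1b replicon lines 5.2 (NS5A adaptive mutation) or ET (NS4B mutation). Luminescence of lysates was measured, and IC50s were derived by nonlinear curve fitting.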

Row | SMILES | EC50 [nM]
1 | CC[C@H](NC(=O)OC)C(=O)N1CCC[C@H]1c1nc2cc(C#Cc3ccc4[nH]c([C@@H]5CCCN5C(=O)[C@H](CC)NC(=O)OC)nc4c3)ccc2[nH]1 [Compound 118] | ≤ 5
2 | O=C(OCc1ccccc1)N1COC[C@@H]1C(=O)N1CCC[C@H]1c1nc2cc(C#Cc3ccc4[nH]c([C@@H]5CCCN5C(=O)[C@H]5COCN5C(=O)OCc5ccccc5)nc4c3)ccc2[nH]1 [Compound 119] | ≤ 5
3 | O=C(C1CCCC1)N1CCCC[C@H]1c1nc2cc(C#CC#Cc3ccc4[nH]c([C@@H]5CCCCN5C(=O)C5CCCC5)nc4c3)ccc2[nH]1 [Compound 120] | > 5000
4 | CC(C)(C)OC(=O)NC(CC1CCC1)C(=O)N1CCC[C@H]1c1nc2cc(C#Cc3ccc4[nH]c([C@@H]5CCCN5C(=O)[C@H](CC5CCC5)NC(=O)OC(C)(C)C)nc4c3)ccc2[nH]1 (stereo partly drawn) [Compound 121] | 5 to 5000
5 | COC(=O)N[C@H](C(=O)N1CCC[C@H]1c1nc2cc(C#Cc3ccc4nc([C@@H]5CCCN5C(=O)NC(C)C)[nH]c4c3)ccc2[nH]1)C(C)C [Compound 122] | ≤ 5
6 | COC(=O)N[C@H](C(=O)N1CCC[C@H]1c1nc2cc(C#Cc3ccc4nc([C@@H]5CCCN5C(=O)NC5CCCCC5)[nH]c4c3)ccc2[nH]1)C(C)C [Compound 123] | 5 to 5000
7 | CC(C)(C)CC(=O)N1CCC[C@H]1c1nc2cc(C#Cc3ccc4[nH]c([C@@H]5CCCN5C(=O)CC(C)(C)C)nc4c3)ccc2[nH]1 [Compound 124] | 5 to 5000
8 | O=C(CC1CCCC1)N1CCC[C@H]1c1nc2cc(C#Cc3ccc4[nH]c([C@@H]5CCCN5C(=O)CC5CCCC5)nc4c3)ccc2[nH]1 [Compound 125] | 5 to 5000
9 | CC(C)(C)OC(=O)NC(C)(C)C(=O)N1CCC[C@H]1c1nc2cc(C#Cc3ccc4[nH]c([C@@H]5CCCN5C(=O)C(C)(C)NC(=O)OC(C)(C)C)nc4c3)ccc2[nH]1 [Compound 128] | 5 to 5000
10 | CC(C)(C)OC(=O)N1CC[C@H]1C(=O)N1CCC[C@H]1c1nc2cc(C#Cc3ccc4[nH]c([C@@H]5CCCN5C(=O)[C@@H]5CCN5C(=O)OC(C)(C)C)nc4c3)ccc2[nH]1 [Compound 129] | > 5000
11 | CC(C)(C)OC(=O)NC1(C(=O)N2CCC[C@H]2c2nc3cc(C#Cc4ccc5[nH]c([C@@H]6CCCN6C(=O)C6(NC(=O)OC(C)(C)C)CCC6)nc5c4)ccc3[nH]2)CCC1 [Compound 130] | 5 to 5000
12 | COC(=O)N[C@H](C(=O)N1CCC[C@H]1c1nc2cc(-c3ccsc3-c3ccc4[nH]c([C@@H]5CCCN5C(=O)[C@@H](NC(=O)OC)C(C)C)nc4c3)ccc2[nH]1)C(C)C [Compound 133] | ≤ 5
13 | CC(C)(C)CCN1CCC[C@H]1c1nc2cc(C#Cc3ccc4[nH]c([C@@H]5CCCN5CCC(C)(C)C)nc4c3)ccc2[nH]1 [Compound 134] | 5 to 5000
14 | CC(C)CCN1CCC[C@H]1c1nc2cc(C#Cc3ccc4[nH]c([C@@H]5CCCN5CCC(C)C)nc4c3)ccc2[nH]1 [Compound 135] | 5 to 5000
15 | C(#Cc1ccc2[nH]c([C@@H]3CCCN3CC3CCCCC3)nc2c1)c1ccc2[nH]c([C@@H]3CCCN3CC3CCCCC3)nc2c1 [Compound 136] | 5 to 5000
16 | CCC(C)CN1CCC[C@H]1c1nc2cc(C#Cc3ccc4[nH]c([C@@H]5CCCN5CC(C)CC)nc4c3)ccc2[nH]1 (stereo partly drawn) [Compound 137] | 5 to 5000
17 | C(#Cc1ccc2[nH]c([C@@H]3CCCN3CCC3CCOCC3)nc2c1)c1ccc2[nH]c([C@@H]3CCCN3CCC3CCOCC3)nc2c1 [Compound 138] | 5 to 5000
18 | C(#Cc1ccc2[nH]c([C@@H]3CCCN3CC3CCCC3)nc2c1)c1ccc2[nH]c([C@@H]3CCCN3CC3CCCC3)nc2c1 [Compound 139] | 5 to 5000
19 | CCC(CC)CN1CCC[C@H]1c1nc2cc(C#Cc3ccc4[nH]c([C@@H]5CCCN5CC(CC)CC)nc4c3)ccc2[nH]1 [Compound 140] | 5 to 5000
20 | COC(=O)N[C@H](C(=O)N1CCC[C@H]1c1nc2cc(-c3ccc(-c4ccc5nc([C@@H]6CCCN6C(=O)[C@@H](NC(=O)OC)C(C)C)[nH]c5c4)cc3[N+](=O)[O-])ccc2[nH]1)C(C)C [Compound 141] | ≤ 5
21 | COC(=O)N[C@H](CC1CCC1)C(=O)N1CCC[C@H]1c1nc2ccc(C#Cc3ccc4nc([C@@H]5CCCN5C(=O)[C@@H](CC5CCC5)NC(=O)OC)[nH]c4c3)cc2[nH]1 [Compound 142] | ≤ 5
22 | COC(=O)N[C@H](C(=O)N1CCC[C@H]1c1nc2cc(-c3c(F)cc(-c4ccc5nc([C@@H]6CCCN6C(=O)[C@@H](NC(=O)OC)C(C)C)[nH]c5c4)cc3F)ccc2[nH]1)C(C)C [Compound 143] | ≤ 5
23 | COC(=O)N[C@H](C(=O)N1CCC[C@H]1c1nc2cc(C)c(-c3ccc(-c4cc5[nH]c([C@@H]6CCCN6C(=O)[C@@H](NC(=O)OC)C(C)C)nc5cc4C)cc3)cc2[nH]1)C(C)C [Compound 144] | ≤ 5

Row | SMILES | EC50 [nM]
24 | COC(=O)N[C@H](C(=O)N1CC[C@H]1c1nc2ccc(-c3ccc(-c4ccc5nc([C@@H]6CCN6C(=O)[C@@H](NC(=O)OC)C(C)C)[nH]c5c4)cc3)cc2[nH]1)C(C)C [Compound 145] | ≤ 5
25 | COC(=O)N[C@H](C(=O)N1CCC[C@H]1c1nc2cc(-c3ccc(-c4ccc5nc([C@@H]6CCCN6C(=O)[C@@H](NC(=O)OC)C(C)C)[nH]c5c4)c4c3OCO4)ccc2[nH]1)C(C)C [Compound 146] | ≤ 5
26 | COC(=O)N[C@H](C(=O)N1CCC[C@H]1c1nc2cc(C#Cc3ccc(-c4ccc5[nH]c([C@@H]6CCCN6C(=O)[C@@H](NC(=O)OC)C(C)C)nc5c4)cc3)ccc2[nH]1)C(C)C [Compound 147] | ≤ 5
27 | COC(=O)N[C@H](C(=O)N1CCCC[C@H]1c1nc2ccc(-c3ccc(-c4ccc5nc([C@@H]6CCCCN6C(=O)[C@@H](NC(=O)OC)C(C)C)[nH]c5c4)cc3)cc2[nH]1)C(C)C [Compound 148] | ≤ 5
28 | COC(=O)N[C@H](C(=O)N1CCC[C@H]1c1nc2cc(-c3c(C)cc(-c4ccc5nc([C@@H]6CCCN6C(=O)[C@@H](NC(=O)OC)C(C)C)[nH]c5c4)cc3C)ccc2[nH]1)C(C)C [Compound 149] | ≤ 5
29 | COC(=O)N[C@H](C(=O)N1CCC[C@H]1c1nc2cc(-c3ccc(-c4ccc5[nH]c([C@@H]6CCCN6C(=O)[C@@H](NC(=O)OC)C(C)C)nc5c4)c(S(C)(=O)=O)c3)ccc2[nH]1)C(C)C [Compound 150] | ≤ 5
30 | COC(=O)NCCN1CCC[C@H]1c1nc2cc(C#Cc3ccc4[nH]c([C@@H]5CCCN5CCNC(=O)OC)nc4c3)ccc2[nH]1 [Compound 151] | 5 to 5000
31 | Cc1nc(C)c(C(=O)N2CCC[C@H]2c2nc3cc(C#Cc4ccc5nc([C@@H]6CCCN6C(=O)c6sc(C)nc6C)[nH]c5c4)ccc3[nH]2)s1 [Compound 152] | 5 to 5000
32 | CCCC/C(=C/c1ccc2[nH]c([C@@H]3CCCN3C(=O)[C@@H](NC(=O)OC)C(C)C)nc2c1)c1ccc2[nH]c([C@@H]3CCCN3C(=O)[C@@H](NC(=O)OC)C(C)C)nc2c1 [Compound 153] | ≤ 5
33 | COC(=O)N[C@H](C(=O)N1CCC[C@H]1c1nc2cc(-c3cc(C#N)c(-c4ccc5[nH]c([C@@H]6CCCN6C(=O)[C@@H](NC(=O)OC)C(C)C)nc5c4)cc3Cl)ccc2[nH]1)C(C)C [Compound 154] | ≤ 5
34 | COC(=O)N[C@H](C(=O)N1CCC[C@H]1c1nc2cc(-c3cc(C)c(-c4ccc5[nH]c([C@@H]6CCCN6C(=O)[C@@H](NC(=O)OC)C(C)C)nc5c4)s3)ccc2[nH]1)C(C)C [Compound 155] | ≤ 5
35 | Cc1cc(-c2ccc3[nH]c([C@@H]4CCCN4C(=O)[C@@H](NC(=O)O[C@H]4CCOC4)C(C)C)nc3c2)sc1-c1ccc2[nH]c([C@@H]3CCCN3C(=O)[C@@H](NC(=O)O[C@H]3CCOC3)C(C)C)nc2c1 [Compound 156] | 5 to 5000
36 | CCCCc1cc(-c2ccc3[nH]c([C@@H]4CCCN4C(=O)[C@@H](NC(=O)OC)C(C)C)nc3c2)sc1-c1ccc2[nH]c([C@@H]3CCCN3C(=O)[C@@H](NC(=O)OC)C(C)C)nc2c1 [Compound 157] | ≤ 5
37 | CCCCc1cc(-c2ccc3[nH]c([C@@H]4CCCN4C(=O)[C@@H](NC(=O)O[C@H]4CCOC4)C(C)C)nc3c2)sc1-c1ccc2[nH]c([C@@H]3CCCN3C(=O)[C@@H](NC(=O)O[C@H]3CCOC3)C(C)C)nc2c1 [Compound 158] | ≤ 5
38 | COC(=O)N[C@H](C(=O)N1CCC[C@H]1c1nc2cc(-c3csc(-c4ccc5[nH]c([C@@H]6CCCN6C(=O)[C@@H](NC(=O)OC)C(C)C)nc5c4)n3)ccc2[nH]1)C(C)C [Compound 159] | ≤ 5
39 | CC(C)[C@H](NC(=O)O[C@H]1CCOC1)C(=O)N1CCC[C@H]1c1nc2cc(-c3csc(-c4ccc5[nH]c([C@@H]6CCCN6C(=O)[C@@H](NC(=O)O[C@H]6CCOC6)C(C)C)nc5c4)n3)ccc2[nH]1 [Compound 160] | 5 to 5000
40 | COC(=O)N[C@H](C(=O)N1CCC[C@H]1c1nc2cc(-c3ccc(-c4ccc5nc([C@@H]6CCCN6C(=O)[C@@H](NC(=O)OC)C(C)C)[nH]c5c4)cc3CO)ccc2[nH]1)C(C)C [Compound 161] | ≤ 5
41 | COC(=O)N[C@@H](C(=O)N1CCC[C@H]1c1nc2cc(-c3ccc(-c4ccc5[nH]c([C@@H]6CCCN6C(=O)[C@H](NC(=O)OC)C(C)C)nc5c4)nn3)ccc2[nH]1)C(C)C [Compound 162] | ≤ 5
42 | COC(=O)N[C@H](C(=O)N1CCC[C@H]1c1nc2cc(-c3ccc(-c4ccc5[nH]c([C@@H]6CCCN6C(=O)[C@@H](NC(=O)OC)C(C)C)nc5c4)c4ncccc34)ccc2[nH]1)C(C)C [Compound 163] | ≤ 5
43 | COC(=O)N[C@H](C(=O)N1CCC[C@H]1c1nc2cc(-c3ccc(-c4ccc5nc([C@@H]6CCCN6C(=O)[C@@H](NC(=O)OC)C(C)C)[nH]c5c4)cc3NC(C)=O)ccc2[nH]1)C(C)C [Compound 164] | ≤ 5
44 | COC(=O)N[C@H](C(=O)N1C[C@H](F)C[C@H]1c1nc2cc(-c3ccc(-c4ccc5nc([C@@H]6C[C@@H](F)CN6C(=O)[C@@H](NC(=O)OC)C(C)C)[nH]c5c4)cc3)ccc2[nH]1)C(C)C [Compound 165] | ≤ 5
45 | COC(=O)N[C@H](C(=O)N1CCC[C@H]1c1nc2cc(-c3ccc(-c4ccc5nc([C@@H]6CCCN6C(=O)[C@@H](NC(=O)OC)C(C)C)[nH]c5c4)c(OC)c3OC)ccc2[nH]1)C(C)C [Compound 166] | ≤ 5
